# Results published in the supplement of paper PMC10307832.
# What was measured:
# Test in all cases: relative viability (nuclei count vs DMSO), 5 days (fraction); higher = more cells survive
# Apatinib + Alpelisib = compound: N#CC1(c2ccc(NC(=O)c3cccnc3NCc3ccncc3)cc2)CCCC1 [Apatinib] + Cc1nc(NC(=O)N2CCC[C@H]2C(N)=O)sc1-c1ccnc(C(C)(C)C(F)(F)F)c1 [Alpelisib] (partner 2 µM)
# In short: (§1)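 Lung cancer cell lines in 1536-well plates were dosed by pin tool the day after seeding, either with one drug alone or with a fixed anchor-drug dose plus five library-drug doses (not always all listed) in √10 steps. After 5 days, cells were fixed and their nuclei stained in one step (final 0.05% Triton X-100, 1% formaldehyde, 1 ug/ml Hoechst), then counted on 4× images. Relative viability is the nuclei count in treated wells divided by that in vehicle wells. Values are medians of duplicate plates.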
# Apatinib + Vorinostat = compound: N#CC1(c2ccc(NC(=O)c3cccnc3NCc3ccncc3)cc2)CCCC1 [Apatinib] + O=C(CCCCCCC(=O)Nc1ccccc1)NO [Vorinostat] (partner 1 µM)
# In short: as §1
# Apatinib + OSI-027 = compound: N#CC1(c2ccc(NC(=O)c3cccnc3NCc3ccncc3)cc2)CCCC1 [Apatinib] + COc1cccc2cc(-c3nc([C@H]4CC[C@H](C(=O)O)CC4)n4ncnc(N)c34)[nH]c12 [OSI-027] (partner 0.5 µM)
# In short: as §1
# Apatinib + Linsitinib = compound: N#CC1(c2ccc(NC(=O)c3cccnc3NCc3ccncc3)cc2)CCCC1 [Apatinib] + C[C@]1(O)C[C@@H](c2nc(-c3ccc4ccc(-c5ccccc5)nc4c3)c3c(N)nccn32)C1 [Linsitinib] (partner 1 µM)
# In short: as §1
Cell Line,relative viability (Apatinib + Alpelisib; first compound 0.08 µM),relative viability (Apatinib + Alpelisib; first compound 0.253 µM),relative viability (Apatinib + Alpelisib; first compound 0.8 µM),relative viability (Apatinib + Alpelisib; first compound 2.53 µM),relative viability (Apatinib + Alpelisib; first compound 8 µM),relative viability (Apatinib + Vorinostat; first compound 0.08 µM),relative viability (Apatinib + Vorinostat; first compound 0.253 µM),relative viability (Apatinib + Vorinostat; first compound 0.8 µM),relative viability (Apatinib + Vorinostat; first compound 2.53 µM),relative viability (Apatinib + Vorinostat; first compound 8 µM),relative viability (Apatinib + OSI-027; first compound 0.08 µM),relative viability (Apatinib + OSI-027; first compound 0.253 µM),relative viability (Apatinib + OSI-027; first compound 0.8 µM),relative viability (Apatinib + OSI-027; first compound 2.53 µM),relative viability (Apatinib + OSI-027; first compound 8 µM),relative viability (Apatinib + Linsitinib; first compound 0.08 µM),relative viability (Apatinib + Linsitinib; first compound 0.253 µM),relative viability (Apatinib + Linsitinib; first compound 0.8 µM),relative viability (Apatinib + Linsitinib; first compound 2.53 µM),relative viability (Apatinib + Linsitinib; first compound 8 µM)
NCI-H2170,0.884,0.776,0.8,0.743,0.706,0.881,0.751,0.792,0.718,0.775,0.803,0.752,0.692,0.594,0.674,–,–,–,–,–
NCI-H1792,0.794,0.743,0.68,0.641,0.553,–,–,–,–,–,0.778,0.659,0.693,0.475,0.439,0.719,0.51,0.502,0.491,0.641
SW 1573,0.829,0.917,0.757,0.761,0.595,0.993,1.07,0.702,0.47,0.446,0.71,0.636,0.553,0.593,0.518,0.898,0.784,0.979,0.885,0.854
HCC-827,0.999,0.991,0.831,0.825,0.469,0.859,0.777,0.817,0.654,0.855,0.856,0.742,0.575,0.719,0.642,0.995,0.937,1.01,0.956,0.737
NCI-H358,0.87,0.914,0.831,0.882,0.781,0.762,0.866,0.616,0.618,0.578,0.898,0.789,0.772,0.706,0.692,0.868,0.777,0.731,0.627,0.703
Calu-6,1.02,1.12,0.956,0.895,0.73,–,–,–,–,–,–,–,–,–,–,0.948,1,0.912,0.928,0.85
LOU-NH91,0.762,0.699,0.586,0.616,0.568,0.974,0.97,0.82,0.816,0.82,0.636,0.667,0.599,0.619,0.676,0.94,0.916,0.717,0.845,0.777
CAL-12T,1.11,1.13,1.22,1.04,1.04,0.941,1.02,0.741,0.794,0.765,0.652,0.589,0.52,0.366,0.272,0.875,0.879,0.819,0.762,0.654
IA-LM,0.793,0.673,0.665,0.558,0.337,0.975,0.968,0.958,0.765,0.92,–,–,–,–,–,0.56,0.383,0.763,0.417,0.341
NCI-H1703,0.289,0.252,0.25,0.175,0.17,–,–,–,–,–,–,–,–,–,–,0.458,0.657,0.441,0.0986,0.132
